The source of these data is patent publication US4820707A, “2,6-piperazinedione compounds” (ADIR Et Cie, priority 1986, dated 1989).

The structures appear in SMILES notation. Structures can show the parent of a compound that is named as a salt.

Assay type in all cases: in vivo
The nature of test [1]: Anxiolytic activity by the four-plates test. As to conditions: mice; for change in vivo at 5 mg/kg: 5 mg.kg^-1; for % increase in the responses: p.o. Here is the method:
The anxiolytic activity of the compounds of the general formula I was investigated in mice according to the method of Aron Simon Larousse and Boissier described in Neuropharmacology (1971) 10 p. 459-469). After treatment of the animals by means of different doses of the compounds of the invention administered intraperitoneally or orally, the increase in the percentage of transitions during the exploration of the base of the test cage, in the presence of electric shocks, was assessed.

Test [2] is described as follows: Anxiolytic activity by the "staircase" test. On the set-up: key to % variation in the steps climbed: NS: not significant. The conditions noted are these: rats. From the text:
The anxiolytic activity of the compounds of the invention was investigated in rats according to the method described by Thiebot, Soubrie and Boissier in J. Pharmacol. 1976, 7, (1), p. 87-102. In this test, behavior involving rearing movements is associated with a state of distress of the animal. The number of steps climbed represents the normal exploratory behavior of the rat introduced into the enclosure. Normally, an efficacious anxiolytic compound should decrease, during the test which lasts 3 minutes, the number of rearing movements without modifying the number of steps climbed, or on the contrary should increase this latter parameter.

Test [3] can be described thus: Inhibition of aggression in isolated and bulbectomized rats. As for the experimental part:
The inhibition of aggression was assessed according to the method described by Vergnes and Karli in C.R. Soc. Biol. 1963, 157, p. 1061. The effect on the aggression is assessed in terms of the percentage of animals which became non-killers after treatment.

Test [4] is described as follows: Inhibition of the active conditioned avoidance response in rats. As to conditions: i.p. An excerpt:
The results obtained with the compounds of general formula I during the various experiments employing the method described by Courvoisier et al. in Arch. Int. Pharmacodyn., 1953, 92, p. 305-361 and by Janssen et al. in Arzneim, Forsch, 1965, 15, p.

A short description of test [5]: Anxiolytic activity by MacMillan's conflict test. As to conditions: rats, i.p., vs physiological saline; for % variation in the unpunished responses: NS (not significant); for % variation in the punished responses: S (significant). An excerpt:
In these conditioning experiments which operate in the presence of a food reward, performed in rats according to the method described by MacMillan in Fed. Proceedings, 1975, 34, (9), p. 1870-1879, two parameters in the animal's behavioral responses are considered. The first parameter is the variation in the level of punished responses, in the presence of an electric shock, under the influence of the treatment in comparison with the level of punished responses under the influence of physiological saline. The second parameter is the variation in the level of unpunished responses, without an electric shock, under the influence of the same treatment, in comparison with the level of unpunished responses when physiological saline is administered. A specific anxiolytic effect is established when, after the administration of a substance, the level of only the punished responses is increased.

Where [6] appears, read: Mus musculus, ip, i.p., read-out: % increase in the responses (transitions).
Where [7] appears, read: Mus musculus, ip, i.p., 25 mg.kg^-1, read-out: % increase in the responses (transitions).
[8] abbreviates: Mus musculus, ip, i.p., 10 mg.kg^-1, read-out: % increase in the responses (transitions).

As to `O=C1CN(Cc2ccccc2Cl)CC(=O)N1CCCN1CCN(c2cccc(C(F)(F)F)c2)CC1` [Example 4, 4-(2-Chlorobenzyl)-1-{3-[1-(3-trifluoromethylphenyl)-4-piperazinyl]propyl}-2,6-piperazinedione dimandelate], in test [1] (setting [6]), the change in vivo at 5 mg/kg stood at 37%. Further, the change in vivo at 25 mg/kg in test [1] (setting [7]) worked out at 67%. Further, the “% increase in the responses” value in test [1] (25 mg.kg^-1) is 35%. For the same molecule, the “% increase in the responses” value in test [1] (50 mg.kg^-1) stood at 58%. Moreover, in test [2] (i.p., 10 mg.kg^-1), the “% variation in the rearing movements” value is reported as -47% and the “% variation in the steps climbed” value is “NS”.

Consider `Cl.Cl.Cl.O=C1CN(Cc2ccccc2)CC(=O)N1CCCCN1CCN(c2ncccn2)CC1` [Example 5, 4-Benzyl-1-{4-[1-(2-pyrimidinyl)-4-piperazinyl]butyl}-2,6-piperazinedione trihydrochloride], for which, in test [2] (i.p., 1,25 mg.kg^-1), the “% variation in the rearing movements” value is given as -40% and the “% variation in the steps climbed” value is “NS”.

For `Cl.Cl.Cl.O=C1CN(Cc2ccccn2)CC(=O)N1CCCN1CCN(c2ccc(F)cc2)CC1` [Example 7, 4-(2-Pyridylmethyl)-1-{3-[1-(4-fluorophenyl)-4-piperazinyl]propyl}-2,6-piperazinedione trihydrochloride], the “% of non-killer animals” value in test [3] (i.p., 25 mg.kg^-1) came to 67%. In addition, the results for the “% ICAR (percentage inhibition of the conditioned avoidance response)” value in test [4] (10 mg.kg^-1), in test [4] (15 mg.kg^-1) and in test [4] (20 mg.kg^-1) were 30%, 48% and 79%, respectively.

For `Cl.Cl.O=C1CN(Cc2ccccc2)CC(=O)N1CCN1CCN(c2cccc(C(F)(F)F)c2)CC1` [Example 10, 4-Benzyl-1-{2-[1-(3-trifluoromethylphenyl)-4-piperazinyl]ethyl}-2,6-piperazinedione dihydrochloride], the change in vivo at 25 mg/kg in test [1] (setting [7]) stood at 85%. In addition, in test [5] (5 mg.kg^-1), the “% variation in the unpunished responses” value is “+18%” and the “% variation in the punished responses” value was “+67%”. The “% of non-killer animals” value in test [3] (i.p., 25 mg.kg^-1) worked out at 66%.

For `COc1ccccc1CN1CC(=O)N(CCCN2CCN(c3ccc(C)cc3)CC2)C(=O)C1` [Example 14, 4-(2-Methoxybenzyl)-1-{3-[1-(4-methylphenyl)-4-piperazinyl]propyl}-2,6-piperazinedione], in test [5] (5 mg.kg^-1), the “% variation in the unpunished responses” value is “+14%” and the “% variation in the punished responses” value is listed as “+48%”.

Consider `COc1ccccc1CN1CC(=O)N(CCCN2CCN(c3cccc(C(F)(F)F)c3)CC2)C(=O)C1.Cl.Cl` [Example 15, 4-(2-Methoxybenzyl)-1-{3-[1-(3-trifluoromethylphenyl)-4-piperazinyl]propyl}-2,6-piperazinedione dihydrochloride], for which the change in vivo at 20 mg/kg in test [1] (Mus musculus, ip, i.p., 20 mg.kg^-1, read-out: % increase in the responses (transitions)) came to 52%. For the same molecule, the “% increase in the responses” value came to 61% in test [1] (10 mg.kg^-1) and 90% in test [1] (50 mg.kg^-1). In addition, the “% variation in the rearing movements” value in test [2] (i.p., 10 mg.kg^-1) was -43%; in test [2] (i.p., 20 mg.kg^-1), -64%. In addition, the “% variation in the steps climbed” value in test [2] (i.p., 10 mg.kg^-1) is on record as “NS”; in test [2] (i.p., 20 mg.kg^-1), “NS”. For the same molecule, the “% variation in the unpunished responses” value in test [5] (10 mg.kg^-1) is given as “+37%”. The “% variation in the punished responses” value in test [5] (10 mg.kg^-1) is given as “+41%”. Further, the “% of non-killer animals” value in test [3] (i.p., 25 mg.kg^-1) is recorded as 64%.

For the molecule `COc1ccccc1CN1CC(=O)N(CCN2CCN(c3cccc(C(F)(F)F)c3)CC2)C(=O)C1` [Example 16, 4-(2-Methoxybenzyl)-1-{2-[1-(3-trifluoromethylphenyl)-4-piperazinyl]ethyl}-2,6-piperazinedione trihydrochloride], the change in vivo at 10 mg/kg in test [1] (setting [8]) turned out to be 41%.

As to `COc1ccccc1N1CCN(CCCN2C(=O)CN(Cc3ccccn3)CC2=O)CC1.Cl.Cl.Cl.Cl` [Example 18, 4-(2-Pyridylmethyl)-1-{3-[1-(2-methoxyphenyl)-4-piperazinyl]propyl}-2,6-piperazinedione tetrahydrochloride], the “% ICAR (percentage inhibition of the conditioned avoidance response)” value was determined as 18% in test [4] (10 mg.kg^-1), 35% in test [4] (15 mg.kg^-1) and 56% in test [4] (dose not printed in this line).

Turning to `Cc1ccc(N2CCN(CCCN3C(=O)CN(Cc4ccccn4)CC3=O)CC2)cc1.Cl.Cl.Cl` [Example 20, 4-(2-Pyridylmethyl)-1-{3-[1-(4-methylphenyl)-4-piperazinyl]propyl}-2,6-piperazinedione trihydrochloride], in test [2] (i.p., 2,5 mg.kg^-1), the “% variation in the rearing movements” value was -43% and the “% variation in the steps climbed” value is listed as “NS”.

As to `Cl.Cl.Cl.O=C1CN(Cc2cccnc2)CC(=O)N1CCCN1CCN(c2cccc(Cl)c2)CC1` [Example 22, 4-(3-Pyridylmethyl)-1-{3-[1-(3-chlorophenyl)-4-piperazinyl]propyl}-2,6-piperazinedione trihydrochloride], the change in vivo at 10 mg/kg in test [1] (setting [8]) was 44%. Also, the “% of non-killer animals” value in test [3] (i.p., 12,5 mg.kg^-1) was determined as 83%.

Regarding `Cc1ccccc1N1CCN(CCCN2C(=O)CN(C(c3ccccc3)c3ccccc3)CC2=O)CC1` [Example 23, 4-Diphenylmethyl-1-{3-[1-(2-methylphenyl)-4-piperazinyl]propyl}-2,6-piperazinedione trimethanesulfonate], the change in vivo at 10 mg/kg in test [1] (setting [8]) was found to be 47%. The change in vivo at 25 mg/kg in test [1] (setting [7]) stood at 77%.

Turning to `O=C1CN(C(c2ccccc2)c2ccccc2)CC(=O)N1CCCN1CCN(c2cccc(C(F)(F)F)c2)CC1` [Example 24, 4-Diphenylmethyl-1-{3-[1-(3-trifluoromethylphenyl)-4-piperazinyl]propyl}-2,6-piperazinedione dimandelate], the change in vivo at 25 mg/kg in test [1] (setting [7]) worked out at 62%.

In the case of `O=C1CN(C(c2ccccc2)c2ccc(Cl)cc2)CC(=O)N1CCCN1CCN(c2cccc(C(F)(F)F)c2)CC1` (stereo not shown) [Example 26, 4-(4-Chlorodiphenylmethyl)-1-{3-[1-(3-trifluoromethylphenyl)-4-piperazinyl]propyl}-2,6-piperazinedione dicitrate], the “% increase in the responses” value in test [1] (25 mg.kg^-1) worked out at 69%.

With `O=C1CN(C2CCCCC2)CC(=O)N1CCCN1CCN(c2cccc(C(F)(F)F)c2)CC1` [Example 27, 4-Cyclohexyl-1-{3-[1-(3-trilfuoromethylphenyl)-4-piperazinyl]propyl}-2,6-piperazinedione dihydrochloride], the change in vivo at 25 mg/kg in test [1] (setting [7]) was 73%. In addition, in test [2] (i.p., 2,5 mg.kg^-1), the “% variation in the rearing movements” value is reported as -41% and the “% variation in the steps climbed” value is “NS”.

Turning to `O=C1CN(CCCN2CCN(c3cccc(C(F)(F)F)c3)CC2)CC(=O)N1Cc1ccccc1` [Example 28, 1-Benzyl-4-{3-[1-(3-trifluoromethylphenyl)-4-piperazinyl]propyl}-2,6-piperazinedione diphosphate], the change in vivo at 25 mg/kg in test [1] (setting [7]) was 82%.

For `COc1cccc(CN2C(=O)CN(CCCN3CCN(c4cccc(C(F)(F)F)c4)CC3)CC2=O)c1` [Example 29, 1-(3-Methoxybenzyl)-4-{3-[1-(3-trifluoromethylphenyl)-4-piperazinyl]propyl}-2,6-piperazinedione diphosphate], the change in vivo at 25 mg/kg in test [1] (setting [7]) turned out to be 49%.

Turning to `O=C1CN(Cc2ccccc2F)CC(=O)N1CCCN1CCN(c2ccc(C(F)(F)F)cn2)CC1` [Example 30, 4-(2-Fluorobenzyl)-1-{3-[1-(5-trifluoromethyl-2-pyridinyl)-4-piperazinyl]propyl}-2,6-piperazinedione dihydrochloride], the change in vivo at 5 mg/kg in test [1] (setting [6]) came to 40%.
